Test results as given in patent publication US20230106769A1, “SERUM-FREE MEDIUM AND CULTURING METHOD SUITED FOR CULTURING BLOOD CELLS SUCH AS HUMAN HEMATOPOIETIC STEM CELLS” (The University of Tokyo, priority 2020, published 2023).

What was measured:
[1] = tested on: human hematopoietic stem cells; test: Culture of human hematopoietic stem cells with AKTa or PI3Ka; type: cell-based; details: 0.3 μM AKTa or 20 μM PI3Ka; PVA, no albumin, SCF 10 ng/mL, TPO 100 ng/mL
Procedure: Then, human hematopoietic stem cells were cultured in a culture medium supplemented with 0.3 μM AKTa (Sigma-Aldrich, product No. 123871) or 20 μM PI3Ka. Cells were counted after 3, 5, and 7 days of incubation, and the relative cell count at each time point was calculated while the cell count on the first day of incubation was set to 1. In the following Examples, 740Y-P (Provider name: Tocris, product No. 1983) was used as PI3Ka.

[2] = tested on: human hematopoietic stem cells; test: Replacement of SCF by PI3Ka, 7-day culture; type: cell-based; details: day 7; 20 μM PI3Ka, TPO 100 ng/mL, PVA, no albumin
Procedure: Next, human hematopoietic stem cells were cultured to examine whether PI3Ka could completely replace SCF. Human hematopoietic stem cells were cultured for 7 days in the above culture medium for human hematopoietic stem cells with 20 μM PI3Ka (S10+PI3Ka20+T100) or in the above culture medium with 20 μM PI3Ka but without SCF (PI3Ka20+T100). The total number of cells and the number of isolated CD34^+ cells as obtained by cell sorting using an anti-CD34 antibody were then determined.

[3] = tested on: human bone marrow CD34+ cells or cord blood CD34+ cells; test: 14-day culture in PI3Ka and TPOago medium with SR-1 and/or UM171; type: cell-based
Procedure: (§1) Prepared was the above culture medium for human hematopoietic stem cells, which medium contained 20 μM PI3Ka and 0.1 μM TPOago instead of SCF and TPO (PI3Ka20μM+TPOago0.1 μM), or which medium contained SR-1 (500 nM) and/or UM171 (35 nM) (+SR-1, +UM171, or +SR-1+UM171). […] The total cell count and the CD34^+ cell count were determined as above on day 14 after the start of culture, and the growth rate relative to that at the start of culture was determined.
as §1, with “(PI3Ka20μM+TPO0.1μM),” for “(PI3Ka20μM+TPOago0.1 μM),”, “(500nM)” for “(500 nM)”

[4] = tested on: human hematopoietic stem cells; test: Culture with PI3Ka and/or TPOago in medium without SCF or TPO; type: cell-based; details: day 7; 20 μM PI3Ka and/or 0.1 μM TPOago; no SCF, no TPO; PVA
Procedure: Next, human hematopoietic stem cells were cultured in a medium containing 20 μM PI3Ka and/or 0.1 μM TPOago with reference to a culture medium without SCF or TPO. On day 7 of culture, the number of total cells and the number of CD34^+ cells included were counted by flow cytometry, and the growth rate relative to that at the start of culture was determined.

[5] = tested on: human bone marrow CD34+ cells or cord blood CD34+ cells; details: absence of albumin, presence of PVA; TPO replaced by agonist
Procedure: In addition, purchased human bone marrow CD34^+ cells (provider name: Lonza, product No. 2C-101) or CD34^+ cells isolated using microbeads from given fresh cord blood were used for culture experiments. the experiments were performed in 24-well plates at 0.2 to 1.0×10^5 cells per well, with TPO removed from the culture medium for human hematopoietic stem cells and replaced by one of the above TPO receptor agonists (hereinafter, sometimes referred to as “TPOago”). The cell count on the seventh day of culture relative to the cell count on the first day of culture was determined.
In addition, purchased human bone marrow CD34^+ cells (provider name: Lonza, product No. 2C-101) or CD34^+ cells isolated using microbeads from given fresh cord blood were used for culture experiments. Experiments were performed in 24-well plates with 0.2 to 1.0×10^5 cells per well, with TPO removed from the culture medium for human hematopoietic stem cells and replaced by one of the above TPO receptor agonists (hereinafter, sometimes referred to as “TPOago”). The cell count on the seventh day of culture relative to the cell count on the first day of culture was determined.

[6] = tested on: Mp132D cells; test: Replacement of TPO by TPO receptor agonists, Mp132D cells; type: cell-based, human; details: 0.1 μM butyzamide, 3 μg/mL eltrombopag, 3 μM avatrombopag; for proliferation in the absence of TPO: in the presence of 0.1% recombinant human serum albumin; for cell proliferative effect in the absence of TPO: in the presence of PVA, absence of albumin
Procedure: (§2) Next, human hematopoietic stem cells were cultured to examine whether TPO could be replaced by a TPO receptor agonist. Examples of the known TPO receptor agonist include butyzamide, eltrombopag, or avatrombopag. Human hematopoietic stem cells were cultured in a medium containing 0.1 μM butyzamide, 3 μg/mL eltrombopag, or 3 μM avatrombopag in the presence of 0.1% recombinant human serum albumin (Albumin Biosciences) or in the presence of PVA in the above culture medium without TPO. In this experiment, Mp132D cells were used as human hematopoietic stem cells.
as §2, with “TPO receptor agonists include butyzamide,” for “TPO receptor agonist include butyzamide,”

[7] = tested on: human bone marrow CD34+ cells or cord blood CD34+ cells; test: Culture with PI3Ka and TPO or butyzamide, growth rate at day 7; type: cell-based; details: 20 μM PI3Ka, 0.1 μM butyzamide vs TPO 100 ng/mL, PVA, no albumin
Procedure: (§3) In the following Examples, butyzamide was used as a TPO receptor agonist. […] After 7 days, the total number of cells was determined and the number of CD34^+ cells was determined by flow cytometry. Thereafter, the growth rate compared to that at the beginning of the incubation was determined. […] In addition, CD34^+ cells were sorted before and after incubation by using a cell sorter, and 100 cells were seeded into Methocult H4415 for colony assay. After two weeks, each colony was picked under a microscope, a cytospin sample was prepared, and the sample was subjected to Giemsa staining. The type of the colony was then identified under a microscope. GEmM colonies per 50 CD34^+ cells were counted and a rate of increase in the number of colonies compared to before the culture was determined.

[8] = tested on: CD34+ cells; test: GEmM colony assay (Methocult H4415) after culture with PI3Ka and TPO or butyzamide; type: cell-based, human; details: GEmM colonies per 50 CD34+ cells; after 7-day culture; 0.1 μM butyzamide vs TPO
Procedure: as §3

[9] = tested on: CD34+ cells; test: 14-day culture of CD34+ cells under conditions 1 to 3; type: cell-based, human
Procedure: Further, the growth rate of the total cell count or the CD34^+ cell count was determined by culturing the CD34^+ cells under three conditions: condition 1: cultured for 14 days in the culture medium for human hematopoietic stem cells above, which medium contained 20 μM PI3Ka and 0.1 μM TPOago instead of SCF and TPO (PI3Ka20μM+TPOago0.1μM), condition 2: at day 7 or later, cultured in a medium without butyzamide (Day7—no Buty), and condition 3: cultured for 14 days in a medium (PI3Ka20μM+TPOago0.1μM) further containing UM171 (+UM171). The CD41^+ cell count was determined using a flow cytometer.

[10] = tested on: Bone marrow cell samples from CML (chronic myelogenous leukemia) patients; test: Culture of chronic myelogenous leukemia (CML) cells with or without imatinib; type: cell-based, human; details: one week; 0.1% PVA, 20 μM PI3Ka, 0.1 μM TPOago
Procedure: Bone marrow cell samples from CML (chronic myelogenous leukemia) patients were each cultured for one week under albumin-free and cytokine-free culture conditions. The culture medium used was a basal medium containing 0.1% PVA, 20 μM PI3Ka, and 0.1 μM TPOago. The culturing was performed in the presence or absence of an inhibitor (imatinib (IM)) of Bcr-Abl, the gene responsible for CML.

[11] = day 14, condition 2 compared to condition 1, condition 3 (+UM171) compared to condition 1 or 2

CCOC(=O)C1=C(N)Oc2ccc(Cl)cc2C1C(C#N)C(=O)OCC (stereo not drawn) [AKTa]
relative cell count (proliferation) after 3, 5 and 7 days [1]: no proliferative effect

SCF: stem cell factor, hematopoietic cell growth factor
difference in number of total cells or CD34+ cells with or without SCF [2]: no statistically significant difference

CC(C)n1cnc2c(NCCc3ccc(O)cc3)nc(-c3csc4ccccc34)nc21 [SR-1]
cell death ([3]; SR-1 500 nM in PI3Ka20μM+TPOago0.1μM medium, PVA, no albumin): caused cell death

RQIKIWFQNRRMKWKKSDGGYMDMS [PI3Ka, Tocris, product No. 1983]
relative cell count (proliferation) after 3, 5 and 7 days [1]: marked proliferation
growth rate (total cells and CD34+ cells) relative to start of culture [4]: no increase in the cell count
difference in number of total cells or CD34+ cells with or without SCF [2]: no significant difference

CCCOC(c1cccc(-c2csc(NC(=O)c3cc(Cl)c(C=C(C)C(=O)O)c(Cl)c3)n2)c1OC)C(C)(C)C (stereo not drawn) [butyzamide, 3-[4-[[[4-[2-methoxy-3-(1-tert-butyl-2-oxapentan-1-yl)phenyl]thiazol-2-yl]amino]carbonyl]-2,6-dichlorophenyl]-2-methylpropenoic acid]
cell count on the seventh day relative to the first day (proliferation) [5]: significant cell proliferation
growth rate (total cells and CD34+ cells) relative to start of culture [4]: no increase in the cell count
proliferation in the absence of TPO [6]: able to support proliferation
cell proliferative effect in the absence of TPO [6]: marked cell proliferative effect
growth rate of total cells and CD34+ cells, replacement of TPO [7]: can completely replace TPO
GEmM colony formation potential, replacement of TPO [8]: can completely replace TPO

O=C(Nc1nc(-c2cc(Cl)cs2)c(N2CCN(C3CCCCC3)CC2)s1)c1cnc(N2CCC(C(=O)O)CC2)c(Cl)c1 [avatrombopag]
proliferation in the absence of TPO [6]: able to support proliferation
cell proliferative effect in the absence of TPO [6]: small

Cn1nnc(-c2ccc3c(c2)[nH]c2nc(Cc4ccccc4)nc(NC4CCC(N)CC4)c23)n1 (stereo not drawn) [UM171, 4-N-[2-benzyl-7-(2-methyltetrazol-5-yl)-9H-pyrimid[4,5-b]indol-4-yl]cyclohexane-1,4-diamine]
CD34+ cell count / growth rate of CD34+ cells [9, 11]: markedly increased
CD41+ cell count [9, 11]: markedly decreased
differentiation into megakaryocyte progenitors and megakaryocytes ([9]; serum-free medium with PVA, PI3Ka and TPOago): inhibited
growth rate of CD34+ cells, medium containing UM171 vs medium without ([3]; day 14, UM171 35 nM): significantly larger
total cell count and CD34+ cell count ([3]; day 14, UM171 35 nM added to PI3Ka20μM+TPOago0.1μM medium): increased

CC1=NN(c2ccc(C)c(C)c2)C(=O)/C1=N\Nc1cccc(-c2cccc(C(=O)O)c2)c1O [eltrombopag]
cell death (cytotoxicity) in hematopoietic stem cells [5]: caused cell death

Cc1ccc(NC(=O)c2ccc(CN3CCN(C)CC3)cc2)cc1Nc1nccc(-c2cccnc2)n1 [IM, imatinib]
cell expansion in the presence of IM [10]: no significant cell expansion
